The structures appear in SMILES notation. Activity calls are given as the source filed them. No cut-off for these calls is given here.

Assay [1] deals with Cortex. Nature of the assay: Effect on electrically-evoked [3H]5HT […] in Sprague-Dawley rat brain cortical slices administered 15 mins before electrical challenge after 85 mins of superfusion relative to control. It is filed as functional, tissue-based.
Assay [2] relates to Cortex. As to the kind of experiment: Effect on spontaneous [3H]5HT […] in Sprague-Dawley rat brain cortical slices at 0.1 to 30 uM measured after 45 mins of superfusion. It is filed as functional, tissue-based.
Assay [3] deals with Cortex. Nature of the assay: Effect on electrically-evoked [3H]5HT […] in Sprague-Dawley rat brain cortical slices administered 15 mins before electrical challenge at 100 uM after 85 mins of superfusion relative to control. The class given is functional, tissue-based.
The test system of assay [4] is Cortex. As to the kind of experiment: Effect on spontaneous [3H]5HT […] in Sprague-Dawley rat brain cortical slices at 0.1 to 100 uM measured after 45 mins of superfusion. The class given is functional, tissue-based.
Assay [5] deals with Cortex. Nature of the assay: Effect on spontaneous [3H]5HT […] in Sprague-Dawley rat brain cortical slices at 1 to 30 uM measured after 45 mins of superfusion. The class given is functional, tissue-based.
Assay [6] has as its system Cortex. Nature of the assay: Effect on electrically-evoked [3H]5HT […] in Sprague-Dawley rat brain cortical slices administered 15 mins before electrical challenge at 30 uM after 85 mins of superfusion relative to control. The class given is functional.

As for `CC(C)NC(=O)CC(=O)C(c1ccccc1)c1ccccc1`, the Activity entry in the assay on Cortex [1] is “Dose-dependent effect”. For the same compound, in the assay with Cortex [2], the outcome was inactive.

As to `NC(=O)CC(=O)C(c1ccccc1)c1ccccc1`, in the assay on Cortex [3], the outcome was Active. Also, the result with Cortex [4] was inactive.

For `NC(=O)C[S+]([O-])C(c1ccccc1)c1ccccc1` (configuration not stated) [MODAFINIL], the Activity result is “Dose-dependent effect” in the assay with Cortex [1] and 217% with Cortex [6]. In addition, the outcome with Cortex [5] was inactive.
